{"source": "patent US20040127396A1", "about": "“Use of furin and furin-like protease inhibitors in the treatment of inflammatory or matrix remodelling diseases” (priority 2000, published 2004)", "key": {"[1]": {"test_system": "TACE maturation in LoVo NEO cells", "experiment": "TACE maturation in LoVo NEO cells by Western blotting", "type": "cell-based, human", "conditions": "24 hrs, various concentrations, FIG. 5B", "excerpt": "To assess the involvement of furin in TACE endoproteolytic processing, applicant first used a furin-deficient cell line, the LoVo cells. These are human colon carcinoma cells which have a point mutation in both alleles of the fur gene leading to production of a defective enzyme (reference 46). These furin knock-out cells have been extensively used to study the contribution of furin in a cellular context (references 10, 38 and 47). LoVo cells were transfected with wild type furin and two stable transfectants LoVoFUR1 and LoVoFUR2 and control transfectant LoVoNEO have been generated accordingly to their acquired gentamycin resistance. Cell lysates were assessed by Western blotting for the production of TACE proteolytic fragments in immunoblotting using TACE-specific antibodies (Chemicon International, CA). […]\nTo define if proprotein convertases other than furin are involved in TACE maturation, LoVo NEO cells were incubated for 24 hrs in the presence of Dec-RVKR-CH2Cl, a synthetic peptide that mimics proprotein recognition site. […] LoVo NEO cells were incubated for 24 hrs in the presence of various concentrations of Dec-RVKR-CH2Cl, and cell lysates were assessed for TACE maturation by Western blotting as described above."}, "[2]": {"test_system": "TNFα release from MonoMac-1 cells", "experiment": "TNFα release from LPS/PMA-stimulated MonoMac-1 cells (ELISA)", "type": "cell-based, human", "conditions": "22 hrs preincubation, then LPS and PMA 3 hours, FIG. 5D", "description": "To investigate whether the levels of TACE maturation observed in LoVo transfectants impacts TACE-related activities, we first measured cell-surface p75 TNF receptor expression as a marker for TACE cell-surface activity. Briefly, LoVo NEO and LoVo FUR2 cell samples were labeled with anti-TACE or anti-TNF p75 receptor antibodies (Catlag laboratories, Burlingame, Calif.) and cell fluorescence was analyzed on a FACScan (Becton Dickinson). […] Next, we measured the ability of Dec-RVKR-CH2Cl to block TNFα release from MonoMac-1 cells, a human monocytic cell line known to produce high levels of this cytokine (50). For this, MonoMac-1 cells were preincubated for 22 hrs with varying concentrations of Dec-RVKR-CH2Cl, then 500 ng/ml LPS and 100 ng/ml PMA were added. After 3 hours incubation with PMA and LPS, the supernatants were tested for TNF-α production using a TNF-α-specific ELISA assay (R&D Systems, Minneapolis, Minn.)."}, "[3]": {"test_system": "proprotein convertases including furin, PC6B, PC3, PC2, PACE-4 and PC7", "conditions": "cited from earlier work"}}}
{"substance": "Dec-RVKR-CH2Cl", "values": [{"measurement": "TACE maturation", "setting": "[1]", "result": "further inhibition of TACE maturation"}, {"measurement": "TNFα released", "setting": "[2]", "result": "blocked almost completely"}, {"measurement": "inhibition of enzymatic activity of proprotein convertases", "setting": "[3]", "result": "efficiently inhibit"}]}
